{"source": "paper PMC11189555", "about": "“Aryl amino acetamides prevent Plasmodium falciparum ring development via targeting the lipid-transfer protein PfSTART1” (Nature Communications, 2024)", "system": "3D7 P. falciparum parasites", "experiment": "Growth inhibition assay (72 h, LDH activity)", "type": "cell-based, Plasmodium falciparum", "details": "for (av-uRBC) / (DMSO-uRBC) x100 / Growth inhibition, (1 - av / DMSO) x 100: 3D7; for Growth inhibition, (1 - av / DMSO) x 100: Fig 2B source data, per biological replicate; for inhibition at 0.123457 µM: conc 123.457 nM; for inhibition at 0.37037 µM: conc 370.37 nM; for inhibition at 1.11111 µM: conc 1111.11 nM; for inhibition at 3.33333 µM: conc 3333.33 nM; for inhibition at 10 µM: conc 10000 nM", "method": "Parasite growth assays with inhibitory compounds were performed as per[11] and are fully described in the Supplementary Information. […]\nGrowth inhibition assays. Synchronised ring-stage parasites (0.3-0.6% parasitemia, 2% haematocrit) were grown for 72 h in a serial-dilution of the compound under […]\nand compound 4. Note that M-833 was first purchased from MolPort (MolPort -002-267-916) then made in-house at WEHI: the differences observed in EC50s across experiments are attributed to the different batches of M -833. For some experiments, 0, 0.25 or 2.5 mM of glucosamine (GlcN) was also added. Experiments were set up in technical duplicates or triplicates. Following a freeze -thaw cycle, lactate dehydrogenase (LDH) activity was assessed as an indicator of parasite growt h 5. 30 μL of parasite culture was incubated for 30 min in the dark with 75 μL Malstat mixture (0.1 M Tris pH 9.0, 20 g/L lactic acid, pH 7.5, 0.2% Triton-X100, 0.5 g/L acetylpyridine adenine dinucleotide (APAD, Sigma), 200 μg/mL nitroblue tetrazolium (NBT; Sigma), 1 μg/mL phenozine ethosulfate (PES; Sigma)). Absorbance was then measured at 650 nm, transformed using the formula below, plotted against the logarithm of the concentrations, and a non-linear regression (log(inhibitor) vs. response, variable slope) was calculated using GraphPad Prism to assess the half-inhibitory […]\nGrowth inhibition % = (1 − average(sample)− average(uRBC)) ∗ 100 […]\nThe DMSO samples were also used to assess growth of parasite in the presence of 0.25 and 2.5 mM GlcN (normalised by DMSO in 0 mM GlcN). […]", "key": {"[1]": {"details": "Plasmodium falciparum, 3D7, 3D7, 0 mM GlcN, read-out: Growth inhibition assay, NORMALISED"}, "[2]": {"details": "Plasmodium falciparum, 3D7, 3D7, 0.25 mM GlcN, read-out: Growth inhibition assay, NORMALISED"}}, "note": "“And” between values parts separate entries of the source, which are not always exact repeats. Equal entries are not always repeated. Where two headings read alike, the source gives them in different places.", "data": [{"smiles": "Cc1cc(Cl)c(S(=O)(=O)N2CCCC2)cc1OCC(=O)NC1CCCCC1", "note": "[M-833]", "values": [{"measurement": "(av-uRBC) / (DMSO-uRBC) x100", "setting": "conc. 82.3045 nM, Biological replicate 2 (2021-11-03)", "result": 97.3382}, {"measurement": "(av-uRBC) / (DMSO-uRBC) x100", "setting": "conc. 246.914 nM, Biological replicate 1 (2021-10-25)", "result": 38.189}, {"measurement": "(av-uRBC) / (DMSO-uRBC) x100", "setting": "conc. 246.914 nM, Biological replicate 2 (2021-11-03)", "result": 46.3664}, {"measurement": "(av-uRBC) / (DMSO-uRBC) x100", "setting": "conc. 740.741 nM, Biological replicate 1 (2021-10-25)", "result": 13.3602}, {"measurement": "(av-uRBC) / (DMSO-uRBC) x100", "setting": "conc. 740.741 nM, Biological replicate 2 (2021-11-03)", "result": 12.5985}, {"measurement": "(av-uRBC) / (DMSO-uRBC) x100", "setting": "conc. 2222.22 nM, Biological replicate 1 (2021-10-25)", "result": 9.5843}, {"measurement": "(av-uRBC) / (DMSO-uRBC) x100", "setting": "conc. 2222.22 nM, Biological replicate 2 (2021-11-03)", "result": 9.9758}, {"measurement": "(av-uRBC) / (DMSO-uRBC) x100", "setting": "conc. 6666.67 nM, Biological replicate 1 (2021-10-25)", "result": 8.737}, {"measurement": "(av-uRBC) / (DMSO-uRBC) x100", "setting": "conc. 6666.67 nM, Biological replicate 2 (2021-11-03)", "result": 9.539}, {"measurement": "(av-uRBC) / (DMSO-uRBC) x100", "setting": "conc. 20000 nM, Biological replicate 1 (2021-10-25)", "result": 8.871}, {"measurement": "(av-uRBC) / (DMSO-uRBC) x100", "setting": "conc. 20000 nM, Biological replicate 2 (2021-11-03)", "result": 7.978}, {"measurement": "Normalised to DMSO", "setting": "3D7 replicate 1, M-833 0.0390625 uM", "result": 93.8526}, {"measurement": "Normalised to DMSO", "setting": "3D7 replicate 1, M-833 0.078125 uM", "result": 78.1653}, {"measurement": "Normalised to DMSO", "setting": "3D7 replicate 1, M-833 0.15625 uM", "result": 53.0058}, {"measurement": "Normalised to DMSO", "setting": "3D7 replicate 1, M-833 0.3125 uM", "result": 31.7546}, {"measurement": "Normalised to DMSO", "setting": "3D7 replicate 1, M-833 0.625 uM", "result": 15.6331}, {"measurement": "Normalised to DMSO", "setting": "3D7 replicate 1, M-833 1.25 uM", "result": 6.894}, {"measurement": "Normalised to DMSO", "setting": "3D7 replicate 1, M-833 2.5 uM", "result": 4.18}, {"measurement": "Normalised to DMSO", "setting": "3D7 replicate 1, M-833 5 uM", "result": 4.492}, {"measurement": "Normalised to DMSO", "setting": "3D7 replicate 1, M-833 10 uM", "result": 2.7005}, {"measurement": "Normalised to DMSO", "setting": "3D7 replicate 2, M-833 0.0390625 uM (plate column as in replicate 1)", "result": 98.0943}, {"measurement": "Normalised to DMSO", "setting": "3D7 replicate 2, M-833 0.078125 uM (plate column as in replicate 1)", "result": 69.2248}, {"measurement": "Normalised to DMSO", "setting": "3D7 replicate 2, M-833 0.15625 uM (plate column as in replicate 1)", "result": 42.9307}, {"measurement": "Normalised to DMSO", "setting": "3D7 replicate 2, M-833 0.3125 uM (plate column as in replicate 1)", "result": 17.4092}, {"measurement": "Normalised to DMSO", "setting": "3D7 replicate 2, M-833 0.625 uM (plate column as in replicate 1)", "result": 12.6706}, {"measurement": "Normalised to DMSO", "setting": "3D7 replicate 2, M-833 1.25 uM (plate column as in replicate 1)", "result": 9.0394}, {"measurement": "Normalised to DMSO", "setting": "3D7 replicate 2, M-833 2.5 uM (plate column as in replicate 1)", "result": 8.2153}, {"measurement": "Normalised to DMSO", "setting": "3D7 replicate 2, M-833 5 uM (plate column as in replicate 1)", "result": 8.679}, {"measurement": "Normalised to DMSO", "setting": "3D7 replicate 2, M-833 10 uM (plate column as in replicate 1)", "result": 8.859}, {"measurement": "Growth inhibition, (1 - av / DMSO) x 100", "setting": "M-833 conc 0.00152416 (unit not given)", "result": "-18.032% and -5.346% and 12.6336%"}, {"measurement": "Growth inhibition, (1 - av / DMSO) x 100", "setting": "M-833 conc 0.00457247 (unit not given)", "result": "-25.7702% and -5.3748% and 10.1353%"}, {"measurement": "Growth inhibition, (1 - av / DMSO) x 100", "setting": "M-833 conc 0.0137174 (unit not given)", "result": "-26.0091% and 2.611% and 15.3938%"}, {"measurement": "Growth inhibition, (1 - av / DMSO) x 100", "setting": "M-833 conc 0.0411523 (unit not given)", "result": "13.4703% and 15.2318% and 31.5623%"}, {"measurement": "Growth inhibition, (1 - av / DMSO) x 100", "setting": "M-833 conc 0.123457 (unit not given)", "result": "53.3795% and 44.2845% and 58.2697%"}, {"measurement": "Growth inhibition, (1 - av / DMSO) x 100", "setting": "M-833 conc 0.37037 (unit not given)", "result": "86.6253% and 82.9734% and 89.4611%"}, {"measurement": "Growth inhibition, (1 - av / DMSO) x 100", "setting": "M-833 conc 1.11111 (unit not given)", "result": "95.3188% and 95.9852%"}, {"measurement": "Growth inhibition, (1 - av / DMSO) x 100", "setting": "M-833 conc 3.33333 (unit not given)", "result": "96.9668% and 96.3144% and 96.0397%"}, {"measurement": "Growth inhibition, (1 - av / DMSO) x 100", "setting": "M-833 conc 10 (unit not given)", "result": "97.5639% and 97.303% and 96.0397%"}, {"measurement": "Normalised to DMSO", "setting": "M-833 0.0390625 uM, 3D7 replicate 3", "result": 105.125}, {"measurement": "Normalised to DMSO", "setting": "M-833 0.078125 uM, 3D7 replicate 3", "result": 101.149}, {"measurement": "Normalised to DMSO", "setting": "M-833 0.15625 uM, 3D7 replicate 3", "result": 87.6289}, {"measurement": "Normalised to DMSO", "setting": "M-833 0.3125 uM, 3D7 replicate 3", "result": 55.4639}, {"measurement": "Normalised to DMSO", "setting": "M-833 0.625 uM, 3D7 replicate 3", "result": 35.4934}, {"measurement": "Normalised to DMSO", "setting": "M-833 1.25 uM, 3D7 replicate 3", "result": 26.4801}, {"measurement": "Normalised to DMSO", "setting": "M-833 2.5 uM, 3D7 replicate 3", "result": 22.6804}, {"measurement": "Normalised to DMSO", "setting": "M-833 5 uM, 3D7 replicate 3", "result": 16.5832}, {"measurement": "Normalised to DMSO", "setting": "M-833 10 uM, 3D7 replicate 3", "result": 21.9735}, {"measurement": "inhibition at 0.0137174 µM", "setting": "Plasmodium falciparum, 3D7, 3D7, 0 mM GlcN, conc 13.7174 nM, read-out: Growth inhibition assay, NORMALISED", "result": 20.6, "unit": "%"}, {"measurement": "inhibition at 0.0411523 µM", "setting": "Plasmodium falciparum, 3D7, 3D7, 0 mM GlcN, conc 41.1523 nM, read-out: Growth inhibition assay, NORMALISED", "result": 44.4, "unit": "%"}, {"measurement": "inhibition at 0.123457 µM", "setting": "[1]", "result": 79.5, "unit": "%"}, {"measurement": "inhibition at 0.37037 µM", "setting": "[1]", "result": 90.2, "unit": "%"}, {"measurement": "inhibition at 1.11111 µM", "setting": "[1]", "result": 91.3, "unit": "%"}, {"measurement": "inhibition at 3.33333 µM", "setting": "[1]", "result": 93.7, "unit": "%"}, {"measurement": "inhibition at 10 µM", "setting": "[1]", "result": 94.5, "unit": "%"}, {"measurement": "inhibition at 0.123457 µM", "setting": "[2]", "result": 77.6, "unit": "%"}, {"measurement": "inhibition at 0.37037 µM", "setting": "[2]", "result": 91.4, "unit": "%"}, {"measurement": "inhibition at 1.11111 µM", "setting": "[2]", "result": 95.5, "unit": "%"}, {"measurement": "inhibition at 3.33333 µM", "setting": "[2]", "result": 94.5, "unit": "%"}, {"measurement": "inhibition at 10 µM", "setting": "[2]", "result": 92.9, "unit": "%"}, {"measurement": "inhibition at 0.0390625 µM", "setting": "Plasmodium falciparum, 3D7, 3D7 replicate 1, M-833 0.0390625 uM", "result": 6.15, "unit": "%"}]}]}
